Source: article PMC6522524 (Nature Communications, 2019)

Tests used:
[1] = test system: HBV (genotype D) in HepG2-NTCP cells; assay: In vitro HBV infection model, HepG2-NTCP cells: secreted HBV DNA
Method: (§1) To isolate the secreted HBV DNA, culture media were collected and centrifuged at 15,000 × g to remove debris. The medium was diluted 1:1 with phosphate-buffered saline (PBS), and 1 M NaOH solution was added to a final concentration of 0.1 M. The mixture was incubated at 37 °C for 1 h. Protein was denatured by adding 2 M Tris-HCl (pH 7.5) solution to a final concentration of 0.2 M and incubating the mixture at 98 °C for 5 min. The protein precipitate was removed by centrifugation at 15,000 × g, and the supernatant was subjected to PCR with an HBV DNA primer and probe set (Supplementary Table 1). […] To isolate intracellular HBV DNA, the cells were lysed on ice with lysis buffer (50 mM Tris-HCl, pH 7.5, 1 mM EDTA, 1% NP40) for 10 min. After removing cell debris and nuclei by centrifugation at 15,000 × g, the supernatant was treated with micrococcal nuclease (0.25 U per μL, M0247, New England Biolabs) at 37 °C for 1 h. The micrococcal nuclease was then inactivated by adding EGTA to a final concentration of 10 mM. Thereafter intracellular HBV DNA was extracted with a G-spin^TM total kit (17046, Intron). The isolated intracellular HBV DNA was subjected to PCR with an HBV DNA primer and probe set (Supplementary Table 1). cccDNA was isolated by the Hirt extraction method[54]. […]

[2] = biological target: T1, Cp149 (truncated HBV core protein) (Hepatitis B virus genotype D subtype ayw, UniProt P03146); assay: biochemical
T1 construct: Cp149 (amino acids 1–149) is a truncated form of the HBV core protein; made in house; host or cells: Escherichia coli

[3] = test system: HepG2.2.15 cells; conditions: 0.1–10 μM, 6 days
[4] = test system: HBV pgRNA/precore RNA in HepG2.2.15 cells; format: cell-based, Hepatitis B virus
Method: Fig. 1 Effect of FDA-approved compounds on HBV replication. a Schematic depiction of the primary screening analysis. HepG2.2.15 cells, which were stably transfected with HBV replicons, were treated with 978 FDA-approved drugs (1 μM) for 3 days. Entecavir (ETV) (1 μM) served as positive control. […] Quantitative RT-PCR was performed after 6 days of incubation. d Effect of the 19 candidates on intracellular HBV capsid assembly. Huh-7 cells were transfected with pCDNA3-Core and exposed after 12 h to the 19 candidates (1 μM) for 36 h. The cells were lysed and assembled HBV core particles were isolated by sucrose step gradient ultracentrifugation, resolved on 1% agarose gels, and subjected to immunoblot analysis with anti-HBV core antibody.
Quantitative RT-PCR with primers that detect three HBV regions (R1, R2, and R3, Supplementary Table 1) was used to measure HBV transcription. This RT-PCR detects pgRNA and precore RNA (3.5 kB), two HBV surface-encoding RNAs (2.5 kB and 2.1 kB), and HBx-encoding RNA (0.7 kB)[55]. PCR conditions were 95 °C for 10 min initially, then 50 cycles of 95 °C for 30 s, 60 °C for 60 s and 72 °C for 30 s, and finally 1 cycle of 95 °C for 60 s, 55 °C for 30 s and 95 °C for 30 s.
a Schematic depiction of the R1, R2, and R3 regions of the HBV genome that were targeted by
quantitative RT-PCR to quantitate the transcription of pgRNA, two HBV surface RNAs, and HBx RNA.
pGL3/HBV pgRNA promoter or pGL3/HBV sRNA promoter. The data shown in (b – d) represent two

[5] = biological target: T1, Cp149 (truncated HBV core protein); assay: Electron microscopy of HBV capsid assembly in vitro; format: biochemical
Method: The particles were negatively stained with 2% uranyl acetate. Scale bars = 200 nm and 100 nm. TEM magnifications, ×49,000 and ×75,000.
Five microliters of the solution containing the assembled HBV core particles was negatively stained by incubation on a carbon-coated grid for 1 min, followed by washing with water and staining with 2% uranyl acetate for 1 min. The grids were examined with a Tecnai G2 F30 S-TWIN transmission electron microscope.

[6] = test system: HepG2 cells transfected with pHBV1.2×; conditions: 0.1–10 μM, 6 days
[7] = in vitro; conditions: human, Cell viability(%)
[8] = test system: HBV transcripts in HepG2 cells transfected with pHBV1.2×; assay: HBV transcription in HepG2 cells transfected with pHBV1.2×, quantitative RT-PCR; format: cell-based, Hepatitis B virus
Method: Quantitative RT-PCR with primers that detect three HBV regions (R1, R2, and R3, Supplementary Table 1) was used to measure HBV transcription. This RT-PCR detects pgRNA and precore RNA (3.5 kB), two HBV surface-encoding RNAs (2.5 kB and 2.1 kB), and HBx-encoding RNA (0.7 kB)[55]. PCR conditions were 95 °C for 10 min initially, then 50 cycles of 95 °C for 30 s, 60 °C for 60 s and 72 °C for 30 s, and finally 1 cycle of 95 °C for 60 s, 55 °C for 30 s and 95 °C for 30 s. […]
a Schematic depiction of the R1, R2, and R3 regions of the HBV genome that were targeted by quantitative RT-PCR to quantitate the transcription of pgRNA, two HBV surface RNAs, and HBx RNA. […]
c Region 3 transcription in ciclopirox-treated (b) HepG2.2.15 cells and (c) HepG2 cells transfected with the pHBV1.2× plasmid. d The promoter analysis of ciclopirox-treated HepG2 cells transfected with pGL3/HBV pgRNA promoter or pGL3/HBV sRNA promoter. The data shown in (b – d) represent two

[9] = test system: HBsAg in HepG2.2.15 cells; assay: Secreted HBsAg ELISA, HepG2.2.15 cells; format: cell-based, Hepatitis B virus
Method: Secreted HBsAg (f, i respectively) was quantified by ELISA.
An HBsAg ELISA kit (KA0286, Abnova) was used to quantify HBsAg protein. Briefly, culture media were incubated in individual wells of the capture plates for 2 h. After washing, horseradish peroxidase-labeled rabbit anti-HBV surface antibody was added, followed by incubation for an additional 2 h. The substrate solution was added for 15–60 min and absorbance at 450 nm was measured.

[10] = test system: total HBV core protein in Huh-7 cells; format: cell-based, Hepatitis B virus
Method: the indicated times. The cells were lysed and assembled HBV core particles were isolated by sucrose step-gradient ultracentrifugation, resolved on 1 % agarose gels, and subjected to immunoblot analysis with anti-HBV core antibody. Total intracellular HBV core protein was also determined by immunoblot analysis in the cell lysates. Core mRNA levels were measured by quantitative RT-PCR. The data

[11] = test system: patients; conditions: cited from earlier work
[12] = test system: HBV rcDNA in Huh-7-NTCP cells; assay: In vitro HBV infection model, Huh-7-NTCP cells: intracellular HBV rcDNA
Method: as §1

[13] = test system: HBV (genotype D) in Huh-7-NTCP cells; assay: In vitro HBV infection model, Huh-7-NTCP cells: secreted HBV DNA
Method: as §1

[14] = test system: HBV (pHBV1.2× adr) in transfected HepG2 cells; assay: microbe, parasite or virus in culture; format: cell-based, Hepatitis B virus; conditions: Hepatitis B virus, HepG2, 144 h; HBV1.2× adr transfected cells, 6 days; read-out: IC50, intracellular HBV DNA

T1 sequence (P03146 1-149): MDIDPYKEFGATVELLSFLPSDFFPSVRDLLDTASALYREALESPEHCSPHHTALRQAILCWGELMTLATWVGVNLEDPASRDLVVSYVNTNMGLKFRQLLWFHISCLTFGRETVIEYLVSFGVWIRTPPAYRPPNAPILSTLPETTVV

Structure (SMILES): Cc1cc(C2CCCCC2)n(O)c(=O)c1 [Ciclopirox, 6-cyclohexyl-1-hydroxy-4-methyl-2(1 H)-pyridone]
- secretion of HBV DNA [1]: dropped markedly
- IC50 [2]: 0.445 ± 0.017 µM
- cytotoxicity [3]: no significant cytotoxicity
- HBV transcripts levels [4]: no effect
- HBV capsid morphology (EM) [5]: HBV capsid morphology was altered
- cytotoxicity [6]: no significant cytotoxicity
- viability at 0.1 µM ([7]; AVERAGE): 99.9%
- viability at 0.2 µM ([7]; AVERAGE): 99.2%
- viability at 0.5 µM ([7]; AVERAGE): 99.4%
- viability at 1 µM ([7]; AVERAGE): 99.9%
- viability at 2 µM ([7]; AVERAGE): 99.4%
- viability at 5 µM ([7]; AVERAGE): 99.2%
- viability at 10 µM ([7]; AVERAGE): 99.8%
- viability at 0.1 µM ([7]; individual samples): 98.9%
- viability at 0.2 µM ([7]; individual samples): 95.7%
- viability at 0.5 µM ([7]; individual samples): 98.9%
- viability at 1 µM ([7]; individual samples): 99.9%
- viability at 2 µM ([7]; individual samples): 99.6%
- viability at 5 µM ([7]; individual samples): 97.6%
- viability at 10 µM ([7]; individual samples): 99.9%
- HBV transcripts levels [8]: no effect
- HBsAg production [9]: no effect
- Total denatured HBV core protein ([10]; 36 h): not affected
- total core protein ([10]; treatment time increased): decreased
- Dose-limiting gastrointestinal toxicities ([11]; 80 mg per m^2 four times daily, oral): Dose-limiting gastrointestinal toxicities were observed
- anti-apoptotic gene expression in peripheral blood cells ([11]; once daily >10 mg per m^2, oral): suppressed anti-apoptotic gene expression in peripheral blood cells
- intracellular relaxed circular DNA levels [12]: dropped markedly
- secretion of HBV DNA [13]: dropped markedly
- IC50 [14]: 0.8 ± 0.18 µM
